From the NIST ThermoML archive (doi:10.1016/j.fluid.2008.06.011)

Experiment: excess molar enthalpy (molar enthalpy of mixing); xn = mol fraction of the nth substance listed
Conditions: 298.15 K, 101 kPa, Liquid, Calvet calorimetry

CCCCCCCCCC [decane] + CCCO
Conditions | excess molar enthalpy [kcal/mol]
x2 = 0.1544 | 0.158
x2 = 0.1615 | 0.162
x2 = 0.2718 | 0.184
x2 = 0.3642 | 0.189
x2 = 0.4594 | 0.188
x2 = 0.5576 | 0.176
x2 = 0.6121 | 0.165
x2 = 0.6669 | 0.151
x2 = 0.7249 | 0.136
x2 = 0.7574 | 0.125
x2 = 0.7667 | 0.123
x2 = 0.8113 | 0.107
x2 = 0.8517 | 0.0894
x2 = 0.885 | 0.0741
x2 = 0.9219 | 0.0535
x2 = 0.9602 | 0.0292
x2 = 0.9832 | 0.0103
